The values that follow are results of earlier work, collected in article PMC9788431, “Combination of Docking-Based and Pharmacophore-Based Virtual Screening Identifies Novel Agonists That Target the Urotensin Receptor” (Molecules, 2022).

Non-standard residues stand in square brackets, D forms with d. Residues, ends and D or L forms follow the SMILES beside them. dTle = CC(C)(C)[C@@H](N)C(=O)O

The data set concerns the target T1, UT receptor (Homo sapiens, UniProt Q9UKP6).
T1 construct: SNAP-tag; expressed in transfected cells; host or cells: 293A8 (HEK293A stably transfected with the UT receptor); inferred, the calcium-assay paragraph names no cells
T1 sequence (Q9UKP6 1-389): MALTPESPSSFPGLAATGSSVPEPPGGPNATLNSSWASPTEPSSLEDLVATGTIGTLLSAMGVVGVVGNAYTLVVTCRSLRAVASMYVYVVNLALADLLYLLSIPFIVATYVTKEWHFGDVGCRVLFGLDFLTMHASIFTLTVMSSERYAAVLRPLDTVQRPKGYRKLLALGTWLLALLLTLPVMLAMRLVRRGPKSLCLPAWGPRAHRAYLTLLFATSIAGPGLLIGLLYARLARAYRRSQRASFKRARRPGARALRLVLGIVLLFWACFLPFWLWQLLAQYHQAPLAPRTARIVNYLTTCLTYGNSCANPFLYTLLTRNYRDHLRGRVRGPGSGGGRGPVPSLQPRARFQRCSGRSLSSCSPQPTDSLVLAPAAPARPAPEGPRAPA
To be noted: agonist; Table S1 benchmarking ligands; ref ChEMBL database and others; cited from earlier work.
Turning to `COc1ccc(-c2ccc(C(=O)NC(CCN(C)C)c3ccc4ccccc4c3)cc2)cc1` (stereo not drawn) [CHEMBL578654], the EC50 is 0.105 µM.
Regarding `CN(C)CCC(NC(=O)c1ccc(-c2ccc3ccccc3c2)cc1)c1ccc2ccccc2c1` (stereo not drawn) [CHEMBL578853], the concentration for a half-maximal effect (EC50) was 0.525 µM.
For `CN(C)CCC(NC(=O)c1cccc(-c2ccc(Cl)cc2)c1)c1ccc(Cl)cc1` (stereo not drawn) [CHEMBL582835], the EC50 is 0.437 µM.
On to `CN(C)CCC(NC(=O)c1ccc(-c2ccccc2)cc1)c1ccc(Cl)cc1` (stereo not drawn) [CHEMBL583981], for which the half-maximal effective concentration (EC50) was 0.0776 µM.
Consider `NCCCC[C@@H]1NC(=O)[C@H](Cc2c[nH]c3ccccc23)NC(=O)[C@H](CO)NC(=O)CNC(=O)[C@@H]2CCCN2C(=O)[C@H](Cc2ccc(O)cc2)NC1=O` [CHEMBL593612] (cyclo(GSWKYP)), for which the EC50 is 0.00851 µM.
Take `NCCCC[C@@H]1NC(=O)[C@H](Cc2c[nH]c3ccccc23)NC(=O)[C@H](CO)NC(=O)CNC(=O)[C@@H]2CCCN2C(=O)[C@H](Cc2ccccc2)NC1=O` [CHEMBL593663] (cyclo(FPGSWK)): the EC50 is 0.0101 µM.
On to `NCCCC[C@@H]1NC(=O)[C@H](Cc2c[nH]c3ccccc23)NC(=O)[C@H](Cc2ccccc2)NC(=O)CNC(=O)[C@@H]2CCCN2C(=O)[C@H](Cc2ccc(O)cc2)NC1=O` [CHEMBL607809] (cyclo(FWKYPG)), for which the concentration for a half-maximal effect (EC50) is 0.00694 µM.
As for `NCCCC[C@@H]1NC(=O)[C@H](Cc2c[nH]c3ccccc23)NC(=O)[C@H](Cc2ccc(O)cc2)NC(=O)CNC(=O)[C@@H]2CCCN2C(=O)[C@H](Cc2ccc(O)cc2)NC1=O` [CHEMBL607810] (cyclo(GYWKYP)), the half-maximal effective concentration (EC50) is 0.0126 µM.
Regarding `NCCCC[C@@H]1NC(=O)[C@H](Cc2c[nH]c3ccccc23)NC(=O)[C@H](Cc2ccccc2)NC(=O)CNC(=O)[C@@H]2CCCN2C(=O)[C@H](Cc2ccccc2)NC1=O` [CHEMBL607811] (cyclo(FPGFWK)), the EC50 is 0.0132 µM.
Take `NCCCC[C@@H]1NC(=O)[C@H](Cc2c[nH]c3ccccc23)NC(=O)[C@H](Cc2ccc(O)cc2)NC(=O)CNC(=O)[C@@H]2CCCN2C(=O)[C@H](Cc2ccccc2)NC1=O` [CHEMBL608097] (cyclo(FPGYWK)): the concentration giving a half-maximal response (EC50) was 0.0757 µM.
Take `NCCCC[C@@H]1NC(=O)[C@H](Cc2c[nH]c3ccccc23)NC(=O)[C@H](Cc2ccccc2)NC(=O)CNC(=O)[C@@H]2CCCN2C(=O)[C@H](Cc2c[nH]c3ccccc23)NC1=O` [CHEMBL608098] (cyclo(FWKWPG)): the EC50 was 0.0206 µM.
As to `NCCCC[C@@H]1NC(=O)[C@H](Cc2c[nH]c3ccccc23)NC(=O)[C@H](CO)NC(=O)CNC(=O)[C@@H]2CCCN2C(=O)[C@H](Cc2c[nH]c3ccccc23)NC1=O` [CHEMBL608099] (cyclo(GSWKWP)), the EC50 is 0.0167 µM.
For the compound `Cc1cc2c(cc1C)C(=O)OC(CCN(C)C)(c1ccc(Cl)c(Cl)c1)C2` (stereo not drawn) [CHEMBL1171808], the 50% effective concentration (EC50) was 0.0513 µM.
Take `Cc1cc2c(cc1C)CC(CCN(C)C)(c1ccc3ccccc3c1)OC2` (stereo not drawn) [CHEMBL1172223]: the EC50 is 0.263 µM.
As to `CN(C)CCC1(c2ccc(Cl)c(Cl)c2)Cc2ccccc2C(=O)O1` (stereo not drawn) [CHEMBL1172763], the EC50 was 0.676 µM.
As to `C=CCN(CC=C)c1ccc2c(c1)CC(CCN(C)C)(c1ccc(Cl)cc1)OC2=O` (stereo not drawn) [CHEMBL1173081], the concentration for a half-maximal effect (EC50) is 0.724 µM.
As for `CN(C)CCC1(c2ccc(Cl)cc2)Cc2ccccc2CO1` (stereo not drawn) [CHEMBL1173172], the EC50 is 0.501 µM.
Turning to `Cc1cc2c(cc1C)C(=O)OC(CCN(C)C)(c1ccc3ccccc3c1)C2` (stereo not drawn) [CHEMBL1173399], the EC50 was 0.148 µM.
Take `Cc1cc2c(cc1C)CC(CCN(C)C)(c1ccc(Cl)cc1)OC2` (stereo not drawn) [CHEMBL1173492]: the EC50 was 0.692 µM.
Regarding `CSCC[C@H](NC(=O)CNC(=O)[C@@H](NC(=O)CNC(=O)[C@@H](NC(=O)[C@H](NC(=O)[C@H](CC(N)=O)NC(=O)[C@H](CCCNC(=N)N)NC(=O)[C@H](Cc1ccccc1)NC(=O)[C@@H](N)CO)C(C)(C)C)C(C)C)[C@@H](C)O)C(=O)N[C@@H](CCCCN)C(=O)N[C@@H](CCCCN)C(=O)N[C@H](C(=O)N[C@@H](CO)C(=O)N[C@@H](Cc1ccccc1)C(=O)N[C@@H](CCC(N)=O)C(=O)N[C@@H](CCCNC(=N)N)C(=O)N[C@@H](C)C(=O)N[C@@H](CCCCN)C(=O)N[C@@H](CO)C(=O)O)[C@@H](C)O` [CHEMBL1627325] (H-SFRN[dTle]VGTGMKKTSFQRAKS-OH), the EC50 was 0.00347 µM.
In the case of `CC(C)[C@H](NC(=O)[C@H](CS)NC(=O)[C@H](Cc1ccc(O)cc1)NC(=O)[C@H](CCCCN)NC(=O)[C@H](Cc1c[nH]c2ccccc12)NC(=O)[C@H](Cc1ccccc1)NC(=O)[C@H](C)NC(=O)[C@H](CC(=O)O)NC(=O)[C@H]1CCCN1C(=O)[C@@H](NC(=O)[C@@H](N)CCC(=O)O)[C@@H](C)O)C(=O)O` [CHEMBL2372895] (H-ET[dP]DAFWKYCV-OH), the 50% effective concentration (EC50) was 0.233 µM.
On to `CC(C)[C@H](NC(=O)[C@H](CS)NC(=O)[C@H](Cc1ccc(O)cc1)NC(=O)[C@H](CCCCN)NC(=O)[C@H](Cc1c[nH]c2ccccc12)NC(=O)[C@H](Cc1ccccc1)NC(=O)[C@H](CS)NC(=O)[C@H](C)NC(=O)[C@H]1CCCN1C(=O)[C@@H](NC(=O)[C@@H](N)CCC(=O)O)[C@@H](C)O)C(=O)O` [CHEMBL2372896], for which the EC50 was 0.0027 µM.
`CC(C)[C@H](NC(=O)[C@H](CS)NC(=O)[C@H](Cc1ccc(O)cc1)NC(=O)[C@H](CCCCN)NC(=O)[C@H](Cc1c[nH]c2ccccc12)NC(=O)[C@H](Cc1ccccc1)NC(=O)[C@H](CS)NC(=O)[C@H](CC(=O)O)NC(=O)[C@H](C)NC(=O)[C@@H](NC(=O)[C@@H](N)CCC(=O)O)[C@@H](C)O)C(=O)O` [CHEMBL2372897] (H-ETADCFWKYCV-OH): the EC50 is 0.0019 µM.
As for `CC(C)[C@H](NC(=O)[C@H](CS)NC(=O)[C@H](Cc1ccc(O)cc1)NC(=O)[C@H](CCCCN)NC(=O)[C@H](Cc1c[nH]c2ccccc12)NC(=O)[C@H](Cc1ccccc1)NC(=O)[C@H](CS)NC(=O)[C@H](CC(=O)O)NC(=O)[C@H]1CCCN1C(=O)[C@@H](NC(=O)[C@H](C)N)[C@@H](C)O)C(=O)O` [CHEMBL2372899] (H-AT[dP]DCFWKYCV-OH), the EC50 is 0.0018 µM.
With `CC(C)[C@H](NC(=O)[C@H](CS)NC(=O)[C@H](Cc1ccc(O)cc1)NC(=O)[C@H](CCCCN)NC(=O)[C@H](Cc1c[nH]c2ccccc12)NC(=O)[C@H](C)NC(=O)[C@H](CS)NC(=O)[C@H](CC(=O)O)NC(=O)[C@H]1CCCN1C(=O)[C@@H](NC(=O)[C@@H](N)CCC(=O)O)[C@@H](C)O)C(=O)O` [CHEMBL2372901] (H-ET[dP]DCAWKYCV-OH), the EC50 is 0.0057 µM.
Turning to `CC(C)[C@H](NC(=O)[C@H](CS)NC(=O)[C@H](Cc1ccc(O)cc1)NC(=O)[C@H](CCCCN)NC(=O)[C@H](Cc1c[nH]c2ccccc12)NC(=O)[C@H](Cc1ccccc1)NC(=O)[C@H](CS)NC(=O)[C@H](CC(=O)O)NC(=O)[C@H]1CCCN1C(=O)[C@H](C)NC(=O)[C@@H](N)CCC(=O)O)C(=O)O` [CHEMBL2372902] (H-EA[dP]DCFWKYCV-OH), the half-maximal effective concentration (EC50) is 0.0033 µM.
As to `CC(C)[C@H](NC(=O)[C@H](CS)NC(=O)[C@H](C)NC(=O)[C@H](CCCCN)NC(=O)[C@H](Cc1c[nH]c2ccccc12)NC(=O)[C@H](Cc1ccccc1)NC(=O)[C@H](CS)NC(=O)[C@H](CC(=O)O)NC(=O)[C@H]1CCCN1C(=O)[C@@H](NC(=O)[C@@H](N)CCC(=O)O)[C@@H](C)O)C(=O)O` [CHEMBL2372903] (H-ET[dP]DCFWKACV-OH), the EC50 was 0.193 µM.
